Measurements reported in US20220387405A1, “METHODS OF TREATMENT WITH N-((R)-1-(3-CHLOROPYRIDIN-2-YL)-2,2,2-TRIFLUOROETHYL)-2-((S)-2,6-DIOXOPIPERIDIN-3-YL)-1-OXOISOINDOLINE-5-CARBOXAMIDE” (CELGENE CORPORATION, priority 2021, published 2022).

Assays:
[1] = system: CD34+ cells from BM samples of TP53 WT AML donors; experiment: Liquid culture of CD34+ cells from TP53 WT AML donors (FACS); format: cell-based, human
Description: CD34^+ cells isolated from BM samples of 3 TP53 WT AML donors and 3 healthy donors were treated with increasing concentrations of Compound 1 in liquid culture at times ranging from 4 hours to 5 days. […] Acute myeloid leukemia blasts sustained CK1α degradation up to 5 days in culture as assessed by fluorescence-activated cell sorting (FACS) analysis. Strikingly, p53 stabilization was sustained longer in leukemic cells (up to 48 hours) compared with normal BM cells (for 24 hours).

[2] = system: MV-4-11 AML xenograft model; experiment: Single dose PK/PD and efficacy studies, MV-4-11 AML xenograft model; format: in vivo, mice
Description: (§1) The CK1α degradation activity and subsequent antitumor activity of Compound 1 in vivo was tested in two TP53 WT AML cell line-derived xenograft models. The depth and duration of CK1α degradation was dose-dependent.
Based on single dose pharmacokinetic (PK)/pharmacodynamics (PD) and efficacy studies with the MV-4-11 AML xenograft model, nearly 90% degradation of CK1α at 2 hours post-dose and 50% suppression through 16 hours a day was maintained when the tumor Compound 1 concentration was >0.1 μM. Maintenance of >0.1 μM Compound 1 in tumor, and this degree of CK1α degradation with daily dosing at 3 mg/kg, led to a 73-99% reduction in tumor burden with significant survival benefit.

[3] = system: MV-4-11-luc disseminated AML xenograft; experiment: MV-4-11-luc disseminated AML xenograft model, tumor burden and survival; format: in vivo, mice
Description: as §1
In a subsequent study, MV-4-11-luc disseminated AML xenografts were treated with 2 cycles of fixed doses and varying dosing duration (5/28 days, 7/28 days and 14/28 days). […] In Kaplan-Meier survival analysis following cessation dosing, the median survival of the vehicle treated animals was 45.5 days. […] The median survival of animals treated with Compound 1 with 2 cycles of 7/28-days at 10, 30, and 50 mg/kg was 67.5 (p<0.0001), 70 (p<0.0001), and 70 (p<0.0001) days, respectively. For the animals treated with 2 cycles of 14/28-days at 3, 10 and 30 mg/kg was 69.5 (p<0.0001), 94.5 (p<0.0001) and 152 (p<0.0001) days, respectively. For 30 mg/kg with 14/28-day cycle, 4/10 animals remained tumor free at the termination of the study on day 154.

[4] = Cardiovascular assessment (ECG, heart rate) in conscious cynomolgus monkeys; format: in vivo; details: oral gavage, 0.03-0.3 mg/kg, Regimens 1 and 2, 1 hour postdose
Description: Cardiovascular assessments (electrocardiograms [ECGs] and heart rates) were conducted in conscious cynomolgus monkeys as part of the Good Laboratory Practice (GLP)-compliant repeat dose toxicity study. In this study, Compound 1 was administered by oral gavage to Cynomolgus monkeys (5/sex/group) in Groups 1-5 at doses of 0 (0.5% (w/v) Methylcellulose, 0.25% (v/v) Tween 80 in 50 mM citrate buffer pH 3), 0.03, 0.1, 0.1 and 0.3 mg/kg, respectively, intermittently using 2 different dosing regimens. Groups 2 and 3 animals were dosed for 7 consecutive days in each 4-week cycle for 2 cycles (Regimen 1: on Days 1-7 and 29-35), whereas Groups 4 and 5 animals were dosed twice weekly for 4 weeks (Regimen 2: on Days 1, 4, 8, 11, 15, 18, 22 and 25). A combination of both dosing regimens (Days 1-7, 8, 11, 15, 18, 22, 25, and 29-35) was used for administration of the vehicle to the control animals. […] Qualitative (visual inspection) and quantitative assessments including heart rates and PR, QRS, RR, QT, and QTc intervals were performed. QTc was calculated using Bazett's formula.

[5] = Nonclinical pharmacokinetics in rats; format: in vivo
Description: The systemic clearance of Compound 1 was low and the volume of distribution was high in rats and monkeys. […] Notable sex differences in PK were not observed in either species. Compound 1 had good oral bioavailability (≥50%) in rats and monkeys.

CYP1A2 = experiment: CYP induction in human hepatocyte culture, CYP1A2 mRNA; format: in vitro ADME; details: up to 50 μM for three consecutive days
[6] = system: Escherichia coli strain WP2 uvrA; experiment: Bacterial reverse mutation test, Escherichia coli; format: cell-based
Description: Compound 1 was tested in Salmonella typhimurium strains (TA1535, TA1537, TA98, TA100) and Escherichia coli strain WP2 uvrA at a range of concentrations up to 5000 μg/plate (the standard limit concentration for this assay), in the presence and absence of a supplemented rat liver fraction (S9 mix), using the plate incorporation version of the bacterial reverse mutation test. Dimethyl sulfoxide (DMSO) was used as the solvent.
The mean revertant colony counts for the negative controls were within the laboratory historical control range. Bacteria were also incubated with standard positive controls, and the response of the various bacterial strains to these agents confirmed the sensitivity of the test system and the activity of the S9 mix. Therefore, the results from both the negative and positive controls confirmed the validity of the assay.
No substantial increases in revertant colony numbers were obtained with any of the tester strains, following exposure to Compound 1 at any concentration, in either the presence or absence of S9 mix. Therefore, Compound 1 was considered to be negative for the induction of mutagenicity in this in vitro assay.

[7] = system: human peripheral blood (PB) lymphocytes; experiment: In vitro mammalian cell micronucleus test
Description: Compound 1 was tested in the in vitro mammalian cell micronucleus test in human peripheral blood (PB) lymphocytes in the presence and absence of a metabolic activation system, Aroclor-induced rat liver fraction (S9), for 4 hours, and in the absence of S9 for 24 hours. The highest concentration tested was 481 μg/mL. Dimethyl sulfoxide (DMSO) was used as the solvent. […] In addition, 2 lower concentrations with appropriate concentration and cytotoxicity spacing were chosen for micronucleus scoring in each regime.

For `O=C1CC[C@H](N2Cc3cc(C(=O)N[C@H](c4ncccc4Cl)C(F)(F)F)ccc3C2=O)C(=O)N1` [Compound 1, N-((R)-1-(3-chloropyridin-2-yl)-2,2,2-trifluoroethyl)-2-((S)-2,6-dioxopiperidin-3-yl)-1-oxoisoindoline-5-carboxamide], the “duration of sustained CK1α degradation” value ([1]; AML blasts in culture, FACS) was “up to 5 days”, the cellular outcome ([1]; leukemic cells) was “apoptotic outcome” and the “duration of sustained p53 stabilization” value ([1]; leukemic cells) was “up to 48 hours”. For the same compound, the “degradation of CK1α” value ([2]; 2 hours post-dose, tumor concentration >0.1 μM) was roughly 90%, the “CK1α degradation in AML xenograft tumors” value ([2]; AML xenograft tumors) was “significantly degraded” and the “reduction in tumor burden” value ([2]; daily dosing at 3 mg/kg) was 73-99%. The “suppression of CK1α” value ([2]; maintained through 16 hours a day, tumor concentration >0.1 μM) was 50%, the “animals remaining tumor free at termination of the study” value ([3]; 30 mg/kg, 14/28-day cycle, day 154) was 4/10 and the median survival ([3]; 2 cycles of 5/28-days at 50 mg/kg, vehicle 45.5 days) was 68.5 days. For the same compound, the median survival ([3]; 2 cycles of 7/28-days at 10 mg/kg) was 67.5 days, the median survival ([3]; 2 cycles of 7/28-days at 30 mg/kg) was 70 days and the median survival ([3]; 2 cycles of 7/28-days at 50 mg/kg) was 70 days. It also gave a median survival ([3]; 2 cycles of 14/28-days at 3 mg/kg) of 69.5 days, a median survival ([3]; 2 cycles of 14/28-days at 10 mg/kg) of 94.5 days and a median survival ([3]; 2 cycles of 14/28-days at 30 mg/kg) of 152 days. The tumor burden ([3]; mice with disseminated MV-4-11 AML, dose-, schedule- and duration-dependent) was “significantly reduced”, the “effects on heart rate, PR, QRS, QT, and QTc intervals” value [4] was “no Compound 1 related effects” and the “accumulation following multiple doses” value [5] was “No accumulation”. For the same compound, the systemic clearance [5] was “low”, the volume of distribution [5] was “high” and the bioavailability ([5]; rat, in vivo, po) was no less than 50%. For the same compound, the half-life ([5]; rat, in vivo, read-out: terminal half-life) was 1.5 to 1.7 h, the “mRNA expression of CYP1A2” value (CYP1A2) was “no dose-dependent increases” and the “toxicity to the bacteria” value ([6]; highest concentrations tested) was “non-toxic”. For the same compound, the “induction of mutagenicity (revertant colony numbers)” value ([6]; up to 5000 μg/plate, presence and absence of S9 mix) was “negative”, the “proportion of micronucleated binucleate cells (MBC)” value ([7]; 4 hours with and without S9, 24 hours without S9, compared with negative controls) was “did not cause any statistically significant increases” and the “cytotoxicity based on CBPI” value ([7]; human, 24 h, 120 μg/mL) was “approximately 55%”.
